Usually inhibition stands for the change of the read-out against control, counted positive when it falls.

Data set [1] has as its target T1, NaV1.7 (Homo sapiens, UniProt Q15858).
T1 construct: expressed in transfected cells; tetracycline-inducible, kept under hygromycin and blasticidin
Briefly: Whole cell patch clamp, internal block of NaV1.7 current (compound in internal solution). The note with it: compound applied internally, manual patch clamp, read-out: Nav1.7 Intracellular Inhibition. In kind it is cell-based. As to the method: Representative compounds of the invention were synthesized according to the described methods and tested for the ability to inhibit voltage-gated sodium channels.
NaV1.7 was expressed upon induction with tetracycline. Cells were cultured in DMEM containing 10% dialyzed Fetal Bovine Serum (VWR, Radnor, Pa.), 1% Glutamax (VWR, Radnor, Pa.), 1% Penicillin-Streptomycin (VWR, Radnor, Pa.), 100 mg/L Hygromycin (Thermo Fisher Scientific, Waltham, Mass. and 5 mg/L Blasticidin (Alfa Aesar, Haverhill, Mass.). Cells were grown and maintained at 37° C. in a humidified environment containing 10% CO2 in air. Cells were detached from the culture flask for passage and harvested using 0.05% Trypsin-EDTA (Thermo Fisher Scientific, Waltham, Mass.). To induce NaV1.7, cells were induced with tetracycline (0.1-1 μg/mL, IBI Scientific, Peosta, Iowa) the day before recording and plated onto 24-well plates. Cells were washed with DPBS (VWR, Radnor, Pa.), trypsinized and then triturated five times in 10 mL of growth media to break apart cell aggregates. For one 24-well plate, 2 mL of cell suspension was mixed with 23 mL of fresh growth media and 0.1-1 μg/mL tetracycline added. 1 ml of mixed media with cells was then added to each well of a 24-well plate, with a 12 mm coverslip already placed in the bottom of the well. Cells were then incubated in 37° C. and 10% CO2 overnight.
The intracellular solution contained the following (in mM) CsCl 135, NaCl 10, EGTA 10, HEPES 10, MgCl2 2, adjusted to pH 7.2 with CsOH. The external solution was a normal Ringer solution containing (in mM) NaCl 155, HEPES 10, glucose 10, KCl 3.5, CaCl2 1.5, MgCl2 1 adjusted to pH 7.4 with NaOH. CsCl is from Alfa Aesar, Haverhill, Mass. All other chemicals are from Sigma-Aldrich, St. Louis, Mo. In order to test the degree of internal block by test compounds the compounds were dissolved in internal solution at the indicated test concentration. […] In order to test the degree of external block by test compounds the compounds were dissolved in external solution at the indicated test concentration.
18-24 hours after cells were induced with tetracycline, coverslips were placed into a chamber filled with Normal Ringer solution at room temperature and the chamber placed on a microscope. Pipettes were pulled from borosilicate glass on a P97 puller (Sutter Instrument, Novato, Calif.) and polished with a MF-830 Microforge (Narishige International USA, Inc, Amityville, N.Y.) to have a resistance of 1.5-2.5 MΩ when filled with CsCl internal solution at room temperature. Healthy cells (those that are round and translucent with no visible blemishes) were chosen for seal formation. A seal was formed between the pipette and the cell, and a brief pulse of suction was used to “break in” and establish the whole-cell configuration. The membrane potential was held at −100 mV before the voltage protocol began. Only cells with series resistance between 1.5-5 MΩ were retained for analysis. The voltage protocol was as follows: Cells were held at −100 mV for 12 ms followed by a hyperpolarizing step to −105 mV for 12 ms to monitor the leak. Cells were then stepped back to −100 mV for 40 ms. Cells were then depolarized to −20 mV for 10 ms and then returned to −100 mV for 26 ms.
Once the recording was started, the voltage protocol was run at 30 second intervals for 5 minutes to get a stable baseline. This was followed by four 30-second periods of 5 Hz stimulation of the same voltage protocol separated by 1 minute of rest which was then followed by 0.33 Hz stimulation after the last train. Currents were recorded using PatchMaster software with Heka EPC10 (HEKA Electronics, Lambrecht, Germany). Only cells with inward current amplitudes at −20 mV between 400 pA and 4 nA were accepted. In addition, cells having leak currents greater than 10% of their current amplitudes were discarded. […]
(The patch-clamp technique gives a direct electrical read-out from membranes.)

The nature of data set [2]: PAMPA membrane permeability assay. In kind it is in vitro ADME. The note with it: PAMPA permeability coefficient, GIT lipid, buffer pH 7.4, 4 hours incubation. As to the method:
The PAMPA assay (pION, Inc., Woburn Mass.) was used to determine the ability of compounds of the invention to cross an artificial lipid membrane by passive diffusion. Test compounds were dissolved in DMSO (10 mM) and diluted 200-fold in buffer (pION Inc., pH 7.4) to provide 50 uM stock solutions. Buffer (150 μL) was added to a UV blank plate and stock solutions (150 μL) were transferred to a UV reference plate. The blank and reference spectrum were read using a spectrophotometer. Stock solutions (200 μL) were added to the donor plate of the PAMPA sandwich plate and an accept plate painted with GIT lipid (pION Inc, 5 μL) was placed on top. Buffer (200 μL) was added to the acceptor plate and the PAMPA sandwich plate was incubated for 4 hours. Aliquots (150 μL) from the acceptor plate were added to a UV plate and read as acceptor spectrum. Aliquots (150 μL) of the donor solutions were added to a UV analysis plate and read as donor spectrum. The permeability coefficient of test compounds was calculated using PAMPA Explorer™ software (version 3.5.0.4) based on the AUC of the reference plate, the donor plate, and the acceptor plate.

T1 sequence (Q15858 whole entry): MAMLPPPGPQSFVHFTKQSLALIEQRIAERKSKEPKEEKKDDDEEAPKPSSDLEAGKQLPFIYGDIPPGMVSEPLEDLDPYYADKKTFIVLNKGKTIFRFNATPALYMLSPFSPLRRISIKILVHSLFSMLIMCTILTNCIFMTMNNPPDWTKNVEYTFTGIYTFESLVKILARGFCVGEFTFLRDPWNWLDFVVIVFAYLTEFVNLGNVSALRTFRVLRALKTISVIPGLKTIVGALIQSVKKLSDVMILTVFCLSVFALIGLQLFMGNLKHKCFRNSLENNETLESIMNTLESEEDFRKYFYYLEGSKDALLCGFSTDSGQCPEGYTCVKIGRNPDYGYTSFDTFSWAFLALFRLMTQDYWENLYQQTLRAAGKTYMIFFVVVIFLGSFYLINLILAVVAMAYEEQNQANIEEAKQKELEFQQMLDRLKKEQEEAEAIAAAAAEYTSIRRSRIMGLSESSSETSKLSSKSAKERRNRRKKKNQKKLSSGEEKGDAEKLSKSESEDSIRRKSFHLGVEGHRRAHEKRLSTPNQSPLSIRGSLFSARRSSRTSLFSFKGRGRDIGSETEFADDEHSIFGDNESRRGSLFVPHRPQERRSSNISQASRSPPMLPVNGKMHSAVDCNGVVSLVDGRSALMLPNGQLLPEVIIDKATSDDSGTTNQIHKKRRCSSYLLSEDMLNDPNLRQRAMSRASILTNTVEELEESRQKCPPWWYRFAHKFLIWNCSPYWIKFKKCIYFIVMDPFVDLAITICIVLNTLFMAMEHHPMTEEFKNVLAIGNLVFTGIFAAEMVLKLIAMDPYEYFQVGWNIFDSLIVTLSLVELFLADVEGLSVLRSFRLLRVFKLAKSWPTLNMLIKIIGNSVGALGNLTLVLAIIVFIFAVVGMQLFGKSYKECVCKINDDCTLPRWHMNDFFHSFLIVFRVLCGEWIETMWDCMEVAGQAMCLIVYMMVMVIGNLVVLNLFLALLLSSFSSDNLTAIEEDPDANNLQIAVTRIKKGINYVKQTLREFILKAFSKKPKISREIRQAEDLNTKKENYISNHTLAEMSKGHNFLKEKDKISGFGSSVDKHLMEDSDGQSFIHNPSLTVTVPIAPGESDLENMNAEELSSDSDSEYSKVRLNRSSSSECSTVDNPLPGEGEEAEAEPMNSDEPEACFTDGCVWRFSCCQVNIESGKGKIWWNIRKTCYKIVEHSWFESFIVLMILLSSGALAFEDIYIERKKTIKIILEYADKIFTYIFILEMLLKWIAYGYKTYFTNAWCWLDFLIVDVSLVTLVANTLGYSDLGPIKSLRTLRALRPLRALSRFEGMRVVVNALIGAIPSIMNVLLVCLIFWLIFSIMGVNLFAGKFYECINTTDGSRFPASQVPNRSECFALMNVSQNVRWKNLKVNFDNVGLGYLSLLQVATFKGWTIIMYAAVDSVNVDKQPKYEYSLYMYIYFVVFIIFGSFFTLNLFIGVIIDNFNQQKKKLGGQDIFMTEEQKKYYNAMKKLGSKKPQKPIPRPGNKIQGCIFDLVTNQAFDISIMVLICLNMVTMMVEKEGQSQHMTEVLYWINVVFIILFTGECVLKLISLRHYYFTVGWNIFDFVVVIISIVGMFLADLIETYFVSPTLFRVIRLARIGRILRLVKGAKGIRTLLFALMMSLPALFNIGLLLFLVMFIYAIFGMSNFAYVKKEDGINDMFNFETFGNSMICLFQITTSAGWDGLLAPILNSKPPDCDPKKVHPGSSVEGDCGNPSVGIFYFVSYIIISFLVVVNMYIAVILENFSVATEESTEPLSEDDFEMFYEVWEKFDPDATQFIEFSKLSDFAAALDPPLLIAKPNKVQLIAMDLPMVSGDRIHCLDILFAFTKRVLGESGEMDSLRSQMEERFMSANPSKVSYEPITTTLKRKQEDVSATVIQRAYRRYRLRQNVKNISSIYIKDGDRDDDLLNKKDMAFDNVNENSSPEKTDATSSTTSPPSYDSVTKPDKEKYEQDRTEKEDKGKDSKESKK

With `Cc1cccc(C)c1NC(=O)C[n+]1c(C)ccc(-c2ccccc2)c1C.[Br-]` [Compound 23A], the inhibition at 32 µM in data set [1] was more than 95%. For the same compound, the “PAMPA (10^−6 cm/s)” value in data set [2] is given as “+ (<0.1 10^−6 cm/s)”.
For `CCCCCCn1cc[n+](CC(=O)Nc2c(C)cccc2C)c1` [Compound 63], the inhibition at 10 µM in data set [1] is 40 to 70%. Besides, the “PAMPA (10^−6 cm/s)” value in data set [2] was “+ (<0.1 10^−6 cm/s)”.
For the compound `CCc1cc[n+](CC(=O)Nc2c(C)cccc2C)cc1` [Compound 19A], the inhibition at 32 µM in data set [1] was 70 to 95%.
Regarding `Cc1cccc(C)c1NC(=O)C[n+]1cccc(F)c1` [Compound 44], in data set [1], the inhibition at 10 µM was 70 to 95%.
Take `Cc1cccc(C)c1NC(=O)C[n+]1cccc(C(=O)N(C)C)c1` [Compound 41]: in data set [1], the inhibition at 10 µM was in the range of 40 to 70%. Further, the “PAMPA (10^−6 cm/s)” value in data set [2] was “+ (<0.1 10^−6 cm/s)”.
As for `Cc1cc(C)c(NC(=O)C[n+]2ccccc2)c(C)c1.[Br-]` [Compound 8A, 1-(2-(mesitylamino)-2-oxoethyl)pyridin-1-ium bromide], in data set [1], the inhibition at 32 µM was less than 40%. Also, the “PAMPA (10^−6 cm/s)” value in data set [2] is on record as “+ (<0.1 10^−6 cm/s)”.
The matching figures for `COc1cc(C)c(NC(=O)C[n+]2ccccc2)c(C)c1.[Br-]` [Compound 10A, 1-(2-((4-methoxy-2,6-dimethylphenyl)amino)-2-oxoethyl) pyridin-1-ium bromide]: less than 40% and “+ (<0.1 10^−6 cm/s)”.
In the case of `Cc1cccc(C)c1NC(=O)C[n+]1cccc(C(C)C)c1` [Compound 31A], the inhibition at 10 µM in data set [1] was in the range of 70 to 95%.
In the case of `Cc1cc(C#N)cc(C)c1NC(=O)C[n+]1ccccc1.[Br-]` [Compound 11A, 1-(2-((4-cyano-2,6-dimethylphenyl)amino)-2-oxoethyl) pyridin-1-ium bromide], the inhibition at 32 µM in data set [1] was less than 40%. Also, the “PAMPA (10^−6 cm/s)” value in data set [2] is recorded as “+ (<0.1 10^−6 cm/s)”.
Take `Cc1cccc(C)c1NC(=O)C[n+]1ccn(-c2ccccc2)c1` [Compound 37]: in data set [1], the inhibition at 10 µM lay in the range of 70 to 95%.
With `Cc1cccc(C)c1NC(=O)C[n+]1cc(-c2ccccc2)n(C)c1.[Br-]` [Compound 24A], the inhibition at 32 µM in data set [1] lay within 70 to 95%. In addition, in data set [2], the “PAMPA (10^−6 cm/s)” value is given as “+ (<0.1 10^−6 cm/s)”.
Regarding `Cc1cccc(C)c1NC(=O)C[n+]1ccn(C)c1.[Br-]` [Compound 2A, 3-(2-((2,6-dimethylphenyl)amino)-2-oxoethyl)-1-methyl-1H-imidazol-3-ium bromide], in data set [1], the inhibition at 32 µM lay within 40 to 70%. The “PAMPA (10^−6 cm/s)” value in data set [2] is recorded as “+ (<0.1 10^−6 cm/s)”.
As to `Cc1cccc(C)c1NC(=O)C[n+]1ccc2ccccc2c1.[Br-]` [Compound 15A], the inhibition at 32 µM in data set [1] is more than 95%. The “PAMPA (10^−6 cm/s)” value in data set [2] was “++ (0.1-2.0 10^−6 cm/s)”.
As to `Cc1cccc(C)c1NC(=O)C[n+]1ccn(C(C)C)c1` [Compound 58], the inhibition at 10 µM in data set [1] was 40 to 70%. In data set [2], the “PAMPA (10^−6 cm/s)” value is “+ (<0.1 10^−6 cm/s)”.
Take `Cc1cccc(C)c1NC(=O)C[n+]1ccn(-c2ccc(Cl)cc2)c1` [Compound 64]: the “PAMPA (10^−6 cm/s)” value in data set [2] was “++ (0.1-2.0 10^−6 cm/s)”.
Take `Cc1cc(Cl)cc(C)c1NC(=O)C[n+]1ccccc1.[Br-]` [Compound 9A, 1-(2-((4-chloro-2,6-dimethylphenyl)amino)-2-oxoethyl) pyridin-1-ium bromide]: the inhibition at 32 µM in data set [1] is less than 40%. Moreover, the “PAMPA (10^−6 cm/s)” value in data set [2] was “+ (<0.1 10^−6 cm/s)”.
Consider `Cc1cccc(C)c1NC(=O)C[n+]1cccc(Cl)c1` [Compound 45], for which, in data set [1], the inhibition at 10 µM lay in the range of 70 to 95%.
On to `Cc1cccc(C)c1NC(=O)C[n+]1cccc(C#N)c1` [Compound 52], for which, in data set [1], the inhibition at 10 µM was 70 to 95%.
As to `CCNC(=O)Cn1ccc[n+]1CC(=O)Nc1c(C)cccc1C.[Br-]` [Compound 30A, 2-(2-((2,6-dimethylphenyl)amino)-2-oxoethyl)-1-(2-(ethylamino)-2-oxoethyl)-1H-pyrazol-2-ium bromide], in data set [2], the “PAMPA (10^−6 cm/s)” value is “++ (0.1-2.0 10^−6 cm/s)”.
For `Cc1cccc(C)c1NC(=O)C[n+]1cccc(C2CCCC2)c1.[Br-]` [Compound 21A], the inhibition at 32 µM in data set [1] is more than 95%. For the same compound, the “PAMPA (10^−6 cm/s)” value in data set [2] is reported as “+ (<0.1 10^−6 cm/s)”.
Take `Cc1cccc(C)c1NC(=O)C[n+]1cccn1C1CCCCC1.[Br-]` [Compound 28A]: in data set [2], the “PAMPA (10^−6 cm/s)” value is listed as “+ (<0.1 10^−6 cm/s)”.
As for `CCNC(=O)Cn1cc[n+](CC(=O)Nc2c(C)cccc2C)c1` [Compound 62], the inhibition at 10 µM in data set [1] is less than 40%. Moreover, in data set [2], the “PAMPA (10^−6 cm/s)” value is “+ (<0.1 10^−6 cm/s)”.
`Cc1cccc(C)c1OC(=O)C[n+]1cccn1C1CCCCC1` [Compound 111]: in data set [1], the inhibition at 10 µM is more than 95%.
`CCC(C(=O)Nc1c(C)cccc1C)[n+]1ccccc1.[Br-]` (stereo not shown) [Compound 3A, 1-(1-((2,6-dimethylphenyl)amino)-1-oxobutan-2-yl)pyridin-1-ium bromide]: the inhibition at 32 µM in data set [1] was 70 to 95%. For the same compound, the “PAMPA (10^−6 cm/s)” value in data set [2] is “++ (0.1-2.0 10^−6 cm/s)”.
On to `Cc1cc(F)cc(C)c1NC(=O)C[n+]1ccccc1.[Br-]` [Compound 7A, 1-(2-((4-fluoro-2,6-dimethylphenyl)amino)-2-oxoethyl) pyridin-1-ium bromide], for which the inhibition at 32 µM in data set [1] was less than 40%. The “PAMPA (10^−6 cm/s)” value in data set [2] was “+ (<0.1 10^−6 cm/s)”.
For `COc1ccc[n+](CC(=O)Nc2c(C)cccc2C)c1` [Compound 43], in data set [1], the inhibition at 10 µM was 70 to 95%.
In the case of `CCOC(=O)Cn1cc[n+](CC(=O)Nc2c(C)cccc2C)c1` [Compound 60], the inhibition at 10 µM in data set [1] lay within 40 to 70%. Further, in data set [2], the “PAMPA (10^−6 cm/s)” value is recorded as “+++ (2.0-10.010^−6 cm/s)”.
With `Cc1cccc(C)c1NC(=O)C[n+]1cc2ccccn2c1` [Compound 35], the inhibition at 10 µM in data set [1] was in the range of 40 to 70%.
With `CCOC(=O)c1c[n+](CC(=O)Nc2c(C)cccc2C)cn1C` [Compound 61], the inhibition at 10 µM in data set [1] lay in the range of 40 to 70%.
Still for that read-out and setting: as for `Cc1cccc(C)c1NC(=O)C[n+]1cccc(O)c1` [Compound 42], the figure is less than 40%.
Turning to `Cc1cccc(C)c1NC(=O)C[n+]1cccc(C2CCCCC2)c1` [Compound 20A], the inhibition at 32 µM in data set [1] lay in the range of 70 to 95%.
Regarding `Cc1ccc[n+](CC(=O)Nc2c(C)cccc2C)c1` [Compound 39], the inhibition at 10 µM in data set [1] lay within 70 to 95%.
Turning to `Cc1cccc(C)c1NC(=O)C[n+]1cccn1CC(C)C.[Br-]` [Compound 27A], the “PAMPA (10^−6 cm/s)” value in data set [2] is reported as “+ (<0.1 10^−6 cm/s)”.
Consider `Cc1cccc(C)c1NC(=O)C[n+]1ccn(Cc2ccccc2)c1` [Compound 38], for which the inhibition at 10 µM in data set [1] lay in the range of 70 to 95%.
Take `CCCn1cc[n+](CC(=O)Nc2c(C)cccc2C)c1` [Compound 57]: the inhibition at 10 µM in data set [1] was in the range of 70 to 95%.
Same read-out and setting: as for `Cc1cccc(C)c1NC(=O)C[n+]1ccnc(C)c1C` [Compound 55], the figure is 40 to 70%.

The values are drawn from US10934263B2, “Charged ion channel blockers and methods for use” (Nocion Therapeutics, Inc., priority 2019, dated 2021).
